Here are results for 17 molecules from paper PMC7221086, “Trefoil factors share a lectin activity that defines their role in mucus” (Nature Communications, 2020).

Where no end group is shown, it is not given here.

In one assay the target is T1, TFF2 (human TFF2) (Homo sapiens, UniProt Q03403, N38Q).
T1 construct: with an N-terminal gp67 signal peptide and a C-terminal His10-tag; gp67 signal peptide (N, cleaved yes); made in house; host or cells: Sf21 insect cells (baculovirus), secreted
T1 sequence (Q03403 24-129 N38Q): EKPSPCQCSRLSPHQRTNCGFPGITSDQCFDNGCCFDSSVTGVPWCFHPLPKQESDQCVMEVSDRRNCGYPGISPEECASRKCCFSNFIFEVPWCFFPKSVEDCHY
The assay is described as follows: Isothermal titration calorimetry of glycans against TFF2. It counts as binding. The note with it: ITC, pH 7.4, 25 °C; TFF2. Here is the method: (§1) All TFF and ligand stock solutions were prepared in the same buffer (50 mM HEPES, 50 mM NaCl, pH 7.4) and filtered (0.22 µm) just prior to titration. All control and non-binding ligand experiments were performed as 12 × 3.18 µl injections. For experiments with GlcNAc-α-1,4-Gal (Carbosynth), 25 × 1.58 µl injections were used. All runs were performed at 25 °C in a MicroCal iTC200 (Malvern).
(§2) Supplementary Table 2: Parameters used for ITC and thermodynamic terms determined for
(§3) GlcNAc-α-1,4-Gal binding to the TFFs. Data are presented as mean values ±SD for three
(§4) Protein GlcNAc-α- T n Kd ΔH ΔS -TΔS ΔG
(§5) (30 µM) 1,4-Gal (µM) (℃) (µM) (kcal · mol-1) (cal · mol-1 · K-1) (kcal · mol-1) (kcal · mol-1)
A general note: In ITC the heat of successive injections is recorded.

Assay [1] addresses T2, mTFF3 (human TFF3, monomeric) (Homo sapiens, UniProt Q07654, C78S).
T2 construct: with an N-terminal PelB signal peptide, no interchain Cys, and a C-terminal His6-tag; PelB signal peptide (N, cleaved yes); His6 (C, cleaved yes); made in house; host or cells: E. coli T7 Express, periplasmic extraction
T2 sequence (Q07654 22-80 C78S): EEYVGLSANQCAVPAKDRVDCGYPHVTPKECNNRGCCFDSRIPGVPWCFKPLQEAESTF
Nature of the assay: Isothermal titration calorimetry of glycans against mTFF3. The note with it: ITC, pH 7.4, 25 °C; TFF3. It counts as binding. Here is the method:
as §1, §2, §3, §4, §5

The target of assay [2] is T3, mTFF1 (human TFF1, monomeric) (Homo sapiens, UniProt P04155).
T3 construct: PelB signal peptide (N, cleaved yes); His6 (C, cleaved yes); made in house; host or cells: E. coli T7 Express, periplasmic extraction
T3 sequence (P04155 with tags, fused parts or gaps): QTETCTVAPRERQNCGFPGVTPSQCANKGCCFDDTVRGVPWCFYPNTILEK
Nature of the assay: Isothermal titration calorimetry of glycans against mTFF1. It counts as binding. The note with it: ITC, pH 7.4, 25 °C; TFF1. How it is done:
as §1, §2, §3, §4, §5

The target in assay [3] is reduced and alkylated pMucin. Nature of the assay: ELISA. The note with it: read off a plot.
Assay [4] concerns pMucinred+GH89 (pMucinred treated with CpGH89). The assay is described as follows: TFF-mucin ELISA on pMucinred+GH89. Type of assay: binding, porcine. The conditions noted are these: immobilised GH89-treated mucin, Strep-HRP detection. Here is the method: (§6) A 50 mg ml^−1 stock of pMucin was prepared by resuspending porcine gastric mucin type III (Sigma) in PBS + 50 mM EDTA + 0.02% NaN3. This pMucin (1 ml) was dialysed (100 kDa NMWL) against 4 M guanidium hydrochloride (2 × 2.0 l) over 48 h at 4 °C. Precipitate was removed by centrifugation (8000×g, 20 min, 4 °C) and the soluble supernatant dialysed (100 kDa NMWL) against PBS (2 × 2.0 l) over 48 h at 4 °C. Half of this sample was treated with 50 µg ml^−1 CpGH89[29] at 30°C for 16 h. Both mucin samples were reduced with 10 mM DTT (30 min, 50 °C) then alkylated by the addition of 30 mM iodoacetamide (30 min, 50 °C). These samples were dialysed (100 kDa NMWL) against PBS (2 × 2.0 l) over 48 h at 4 °C. The concentration of all three mucin stock solutions were standardised to A280 = 1.5 using PBS. These samples were aliquoted, flash frozen in liquid N2 and stored at −80 °C.
(§7) A solution of pMucin, pMucinred or pMucinred+GH89 (100 µl, 1 µg ml^−1) in 100 mM bicarbonate buffer pH 9.4, was added to each well of a 96-well plate (flat-bottom Nunc MaxiSorp, ThermoFisher) and the plate gently nutated for 2 h at 25 °C. The wells were rinsed four times with 200 µl PBS-T (50 mM NaPi pH 7.4, 150 mM NaCl, 0.2% Tween-20) then blocked for 1 h at 25 °C with blocking buffer (50 mM NaPi pH 7.4, 150 mM NaCl, 5% w/v BSA). The wells were rinsed four times with 200 µl PBS-T then incubated with 100 µl blocking buffer containing TFF (various concentrations) and 1:1000 Strep-HRP (ThermoFisher) for 1 h at 25 °C. The wells were rinsed four times with 200 µl PBS-T then developed by adding 100 µl of TMB-Turbo (ThermoFisher) and incubated for 30 min at 25 °C. The reaction was quenched by the addition of 100 µl of 2 M H2SO4. Absorbance at 450 nm was read within 20 min using an EnVision 2105 Multimode Plate Reader (PerkinElmer). Data was analysed using Prism 8 (GraphPad).
For orientation: ELISA stands for enzyme-linked immunosorbent assay.

In assay [5] the test system is pMucinred (reduced and alkylated pMucin). The assay is described as follows: TFF-mucin ELISA on pMucinred. The note with it: immobilised pMucinred, Strep-HRP detection. It counts as binding, porcine. Here is the method:
as §6, §7

Assay [6] concerns pMucin (porcine gastric mucin). The assay is described as follows: TFF-mucin ELISA on pMucin. Type of assay: binding. The note with it: immobilised pMucin, Strep-HRP detection. Here is the method:
as §6, §7

For assay [7], the target named is commercially-available porcine gastric mucin (porcine).

Consider `CC(=O)N[C@H]1[C@@H](Oc2ccc([N+](=O)[O-])cc2)O[C@H](CO)[C@@H](O)[C@@H]1O` [4-nitrophenyl α-D-GlcNAc], for which the “affinity by ITC” value (at TFF2 (human TFF2); in assay [1]; in assay [2]) was “no detectable affinity” each time.

Consider `CC(=O)N[C@H]1C(O)O[C@H](CO)[C@@H](O)[C@@H]1O` (stereo partly drawn) [D-GlcNAc], for which the “affinity by ITC” value (on TFF2 (human TFF2); in assay [1]; in assay [2]) was “no detectable affinity” throughout.

`OC[C@H]1O[C@H](O[C@@H]2[C@H](O)[C@@H](O)C(O)O[C@@H]2CO)[C@H](O)[C@@H](O)[C@H]1O` (stereo partly drawn) [Gal-α-1,4-Gal]: the “affinity by ITC” value (at TFF2 (human TFF2); in assay [1]; in assay [2]) was “failed to show any affinity” each time.

For the molecule `CC(=O)N[C@H]1[C@@H](OCc2ccccc2)O[C@H](CO)[C@@H](O)[C@@H]1O` [benzyl α-D-GlcNAc], the “affinity by ITC” value (at TFF2 (human TFF2); in assay [1]; in assay [2]) was “no detectable affinity” in each case.

Consider `OC[C@H]1O[C@H](O[C@H]2[C@H](O)[C@@H](O)[C@H](O)O[C@@H]2CO)[C@H](O)[C@@H](O)[C@@H]1O` [maltose], for which the “affinity by ITC” value (on TFF2 (human TFF2); in assay [1]; in assay [2]) was “failed to show any affinity” in each case.

For the molecule “biotinylated dimeric TFF1 (from UniProt P04155) N14A”, the response (Abs. @ 450 nm) in assay [3] (25 nM TFF, parent: est. 1.3) was 0.68; in assay [3] (1000 nM TFF, parent: est. 1.3), 1.

“biotinylated dimeric TFF1 (from UniProt P04155) W41A”: the response (Abs. @ 450 nm) in assay [3] (25 nM TFF, parent: est. 1.3) was 0.06; in assay [3] (1000 nM TFF, parent: est. 1.3), 0.045.

On to “biotinylated dimeric TFF3 (from UniProt Q07654) D20A”, for which the response (Abs. @ 450 nm) in assay [3] (25 nM TFF, parent: est. 1.2) was determined as 0.04; in assay [3] (1000 nM TFF, parent: est. 1.2) it was 0.095.

Consider “biotinylated dimeric TFF3 (from UniProt Q07654) W47A”, for which the response (Abs. @ 450 nm) in assay [3] (25 nM TFF, parent: est. 1.2) was determined as 0.035; in assay [3] (1000 nM TFF, parent: est. 1.2) it was 0.04.

With “dTFF1bio: biotinylated dimeric TFF1 construct, wild type ({Avi‑tag(biotin)}-EAQTETCTVAPRERQNCGFPGVTPSQCANKGCCFDDTVRGVPWCFYPNTIDVPPEEECEF; also: homodimer via interchain disulfide, Cys not given here)”, in assay [4], the “binding to pMucinred+GH89 by ELISA” value was “does not bind”.

Turning to “dTFF3bio-D20A: biotinylated dimeric TFF3 with D20A mutation ({Avi‑tag(biotin)}-EEYVGLSANQCAVPAKDRVACGYPHVTPKECNNRGCCFDSRIPGVPWCFKPLQEAECTF; also: homodimer via interchain disulfide, Cys not given here)”, the “binding / affinity to pMucinred by ELISA” value in assay [5] is reported as “barely any detectable affinity”.

Take “dTFF3bio-W47A: biotinylated dimeric TFF3 with W47A mutation ({Avi‑tag(biotin)}-EEYVGLSANQCAVPAKDRVDCGYPHVTPKECNNRGCCFDSRIPGVPACFKPLQEAECTF; also: homodimer via interchain disulfide, Cys not given here)”: in assay [5], the “binding / affinity to pMucinred by ELISA” value is “completely inactive”.

As to “mTFF1bio: site-selectively biotinylated monomeric TFF1 ({Avi‑tag(biotin)}-EAQTETCTVAPRERQNCGFPGVTPSQCANKGCCFDDTVRGVPWCFYPNTIDVPPEEECEF; also: one free cysteine, interchain disulfide not formed)”, the “binding / affinity to pMucinred by ELISA” value in assay [5] is recorded as “robust binding”. For the same molecule, in assay [4], the “binding to pMucinred+GH89 by ELISA” value is “no significant binding”. For the same molecule, the “binding to pMucin by ELISA” value in assay [6] is recorded as “robust binding”.

For “mTFF3bio: site-selectively biotinylated monomeric TFF3 ({Avi‑tag(biotin)}-EEYVGLSANQCAVPAKDRVDCGYPHVTPKECNNRGCCFDSRIPGVPWCFKPLQEAECTF; also: one free cysteine, interchain disulfide not formed)”, the “binding / affinity to pMucinred by ELISA” value in assay [5] is “robust binding”. In assay [4], the “binding to pMucinred+GH89 by ELISA” value is reported as “no significant binding”. Besides, the “binding to pMucin by ELISA” value in assay [6] is on record as “robust binding”.

B1: biotinylated dimeric TFF3 (natural protein)
chain: EEYVGLSANQCAVPAKDRVDCGYPHVTPKECNNRGCCFDSRIPGVPWCFKPLQEAECTF
modifications: also: dimer via interchain disulfide, biotin on Avi-tag (BirA), tag not in chain
B1: the EC50 of the glycoside hydrolase CpGH89 (0-512 nM, 20 h, 30 °C) for liberating bound dTFF3bio from immobilised pMucin, read by ELISA in assay [7] was 0.4 nM.

B2: biotinylated dimeric TFF1 (natural protein)
chain: EAQTETCTVAPRERQNCGFPGVTPSQCANKGCCFDDTVRGVPWCFYPNTIDVPPEEECEF
modifications: also: dimer via interchain disulfide, biotin on Avi-tag (BirA), tag not in chain
On to B2, for which, in assay [7], the EC50 of the glycoside hydrolase CpGH89 (0-512 nM, 20 h, 30 °C) for liberating bound dTFF1bio from immobilised pMucin, read by ELISA came to 0.8 nM.

B3: TFF2bio: biotinylated TFF2, positive control (protein)
chain: EKPSPCQCSRLSPHNRTNCGFPGITSDQCFDNGCCFDSSVTGVPWCFHPLPKQESDQCVMEVSDRRNCGYPGISPEECASRKCCFSNFIFEVPWCFFPKSVEDCHY
modifications: biotin, non-specific (EZ-Link NHS-PEG4-biotin); left off: His10, C-terminal, state not stated
notes: biotinylated TFF2, positive control
With B3, the “binding / affinity to pMucinred by ELISA” value in assay [5] is given as “robust binding”. Moreover, the “binding to pMucinred+GH89 by ELISA” value in assay [4] is given as “no significant binding”. For the same molecule, the “binding to pMucin by ELISA” value in assay [6] was “robust binding”.
